# Data as given in patent US6841682B2, “Heterocycles useful in the treatment of benign prostatic hyperplasia” (Janseen Pharmaceutica N.V., priority 1997, dated 2005).
# Legend:
# α1a-AR = target: T1, α1a-AR (Homo sapiens, UniProt P35348); assay: radioligand ([125I]-HEAT) receptor binding assay, COS cell membranes, α1a-AR; details: Tables A-J; [125I]-HEAT 50 pM, COS membranes; read-out: α1a IC50
# T1 construct: expressed in transfected cells; host or cells: COS cells (pcDNA3 vector, DEAE-dextran transient transfection); membrane preparation
# T1 sequence (P35348 1-466): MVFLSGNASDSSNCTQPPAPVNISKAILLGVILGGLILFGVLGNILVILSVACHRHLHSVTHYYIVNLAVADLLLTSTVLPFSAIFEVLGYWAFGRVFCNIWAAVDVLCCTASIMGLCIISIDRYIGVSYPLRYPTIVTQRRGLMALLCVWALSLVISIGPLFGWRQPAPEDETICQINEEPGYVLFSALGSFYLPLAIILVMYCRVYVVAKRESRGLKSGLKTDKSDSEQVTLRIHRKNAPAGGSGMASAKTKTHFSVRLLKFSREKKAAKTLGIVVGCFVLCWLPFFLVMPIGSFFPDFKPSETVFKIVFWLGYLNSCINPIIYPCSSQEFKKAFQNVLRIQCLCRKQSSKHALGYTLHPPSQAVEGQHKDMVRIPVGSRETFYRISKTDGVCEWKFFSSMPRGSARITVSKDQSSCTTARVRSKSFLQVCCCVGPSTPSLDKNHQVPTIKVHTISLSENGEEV
# Source text: The first assay tested the ability of compounds of Formula I to bind to membrane bound receptors α1a-AR, α1b-AR and α1d-AR.
# The DNA sequences of the three cloned human α1-AR subtypes have been published. […] We used published DNA sequence information to design-primers for use in RT-PCR amplification of each subtype to obtain cloned cDNAs. Human poly A+ RNA was obtained from commercially available sources and included hippocampus and prostate samples, sources which have been cited in the literature. For the primary screen a radio ligand binding assay was used which employed membrane preparations from cells expressing the individual cloned receptor cDNAs.
# Each α1 receptor subtype was cloned from poly A+ RNA by the standard method of reverse transcription-polymerase chain reaction (RT-PCR). The following sources of polyA+ RNA were used for the cloning of the al receptor subtypes: α1a-AR, human hippocampus and prostate, α1b-AR, human hippocampus, α1d-AR, human hippocampus. The resulting cDNAs were cloned into the pcDNA3 mammalian expression vector (Invitrogen Corp., San Diego Calif.). Each DNA was sequenced for verification and to detect any possible mutations introduced during the amplification process. Any deviation in sequence from the published consensus for each receptor subtype was corrected by site-directed mutagenesis.
# The three α1-AR subtypes (a, b, d) were transfected into COS cells using a standard DEAE-dextran procedure with a chloroquine shock. In this procedure, each tissue culture dish (100 mm) was inoculated with 3.5×10^6 cells and transfected with 10 μg of DNA. Approximately 72 hours post-transfection, the cells were harvested and COS membranes were prepared. Transfected COS cells from 25 plates (100 mm) were scraped and suspended in 15 mL of TE buffer (50 mM Tris-HCl, 5 mM EDTA, pH7.4). The suspension was disrupted with a homogenizer. It was then centrifuged at 1000×g for 10 minutes at 4° C. The supernatant was centrifuged at 34,500×g for 20 minutes at 4° C. The pellet was resuspended in 5 mL TNE buffer (50 mM Tris-HCl, 5 mM EDTA, 150 mM NaCl, pH7.4). The resulting membrane preparation was aliquoted and stored at −70° C. The protein concentration was determined following membrane solubilization with TritonX-100.
# The ability of each compound to bind to each of the α1-AR subtypes was assessed in a receptor binding assay. […] The plate was incubated for 1 hour at room temperature and the reaction mixtures were filtered through a Packard GF/C Unifilter filter plate. The filter plate was dried for 1 hour in a vacuum oven. Scintillation fluid ([…]) was added to each well, and the filter plate was counted in a Packard Topcount scintillation counter. Data was analyzed using GraphPad Prism software.
# rat prostatic tissue = assay: norepinephrine-induced contractile response of rat prostatic tissue; type: cell-based; details: rat prostate strips, 32° C., pH 7.4, read-out: IC50, inhibition of contractile response in prostate tissue
# Source text: The contractile responses of rat prostatic tissue and rat aorta tissues were examined in the presence and absence of antagonist compounds. As an indication of the selectivity of antagonism, test compound effects on vascular smooth muscle contractility (α1b-AR and α1d-AR) were compared to the effects on prostatic smooth muscle (α1a-AR). Strips of prostatic tissue and aortic rings were obtained from Long Evans derived male rats weighing 275 grams and sacrificed by cervical dislocation. The prostate tissue was placed under 1 gram tension in a 10 ml bath containing phosphate buffered saline pH 7.4 at 32° C. and isometric tension was measured with force transducers. The aortic tissue was placed under 2 grams tension in a 10 ml bath containing phosphate buffered saline pH 7.4 at 37° C. The ability of test compound to reduce the norepinephrine-induced contractile response by 50% (IC50) was determined.
IC50 (α1a-AR) [nM],IC50 (rat prostatic tissue) [nM],Compound
1.88,380,CC(C)Oc1ccccc1N1CCN(Cc2ncc(CN3CCCCC3=O)s2)CC1 [Compound 16]
2.1,1300,CC(C)Oc1ccccc1N1CCN(Cc2cc(CN3CCCCC3=O)n[nH]2)CC1 [Compound 3]
